Laboratory results as given in patent US20110318281A1, “Lactobacillus Salivarius SG-M6 for Improving Oral Bacterial Groups and Health Care Compositions Thereof” (SYNGEN BIOTECH CO., LTD., priority 2010, published 2011).

Columns and labels:
[1] = test system: Actinomyces viscosus (ATCC 15987); test: Disc agar diffusion test; assay type: cell-based; conditions: 6 mm paper disc, 37, 24 hours, mean±S.D. (n=3)
Procedure: (§1) Lactobacillus salivarius SG-M6 were cultured in liquid medium. MRS medium was used in this embodiment. The bacteria were cultured at 30-37 for 15-24 hours. The fermentation broth was concentrated into 30-fold of original concentration, dialyzed by Spectra/Por®Dialysis Membrane (MWCO:3500, Spectrum Laboratories Inc, CA) for 48 hours, and diluted into various concentrations according to experimental requirements. […] Above four pathogens strains were purchased from Bioresource Collection and Research Center of Food Industry Research and Development Institute in Taiwan or ATCC. […] The diameter of sterile paper disc was 6 mm. The positive bacterial inhibition effect was determined by bacterial inhibition zone over 6 mm in diameter. Otherwise, it was defined as negative bacterial inhibition effect. Cultural condition was under the temperature of 37 for 24 hours. […] The inhibition zone values were shown as mean±S.D. (n=3).

[2] = test system: Porphyromonas gingivalis (ATCC 33277); test: Disc agar diffusion test; assay type: cell-based; conditions: 6 mm paper disc, 37, 24 hours, mean±S.D. (n=3)
Procedure: as §1

[3] = test system: Streptococcus mutans (ATCC 25175); test: Disc agar diffusion test; assay type: cell-based; conditions: 6 mm paper disc, 37, 24 hours, mean±S.D. (n=3)
Procedure: as §1

[4] = test system: Streptococcus sanguis (ATCC 49295); test: Disc agar diffusion test; assay type: cell-based; conditions: 6 mm paper disc, 37, 24 hours, mean±S.D. (n=3)
Procedure: as §1

[5] = test system: artificially induced periodontal disease (ligature wire, Streptococcus mutans); test: Evaluation of preventive effect for animal periodontal disease; assay type: in vivo, Balb/c mice; conditions: prevention groups; for periodontal pocket improvement percentage (percentage of improving individual): Mann-Whitney test vs pMT
Procedure: (§2) This trial included treatment groups and control groups. The treatment groups of Lactobacillus salivarius SG-M6 were divided into 6 groups as follows: 6 groups of dialyzed fermentation product concentrate of Lactobacillus salivarius SG-M6 included 15-fold, 10-fold, 5-fold, 4-fold, 2-fold, and 1-fold (unconcentrated fermentation broth). Two control groups included the treatment of 0.267 mg/mL of tetracycline and distilled water.
Twelve of 8-week-old female Balb/c mice were selected for each group (Table 2). The mice were administered with various concentrations of Lactobacillus salivarius SG-M6 fermentation product, 1 mL of 0.267 mg/mL tetracyccline or distilled water. […] Their pathological symptoms observed and recorded until sacrificing all animals. Until the control group (feeding with distilled water, mock-treated group) showing gum swelling and dental plaque appearance diagnosed by chief dentists, the ligature wire was removed and inoculation of dental pathogen was stopped. At day 4, 8, 12, and 16 after wire removal, mice periodontal pocket depth was examined, 3 mice from each group were killed for blood sampling, and samples were collected for histological analysis.
(§3) Control group was used as a standard to examine individuals in each group by Mann-Whitney test. Subjects with significant difference were defined as improving individuals. (number of improving Subject/number of total subject in group)×100%=improvement percentage of periodontal pocket depth.
(§4) Experimental data were shown as mean±S.D. The statistical variation of treatment group and control group of mice periodontal pocket were performed by One-Way ANOVA and Dunnett multiple post hoc comparison in longitudinal study, and by One-Way ANOVA and LSD multiple post hoc comparison in cross-sectional study. Besides, Mann-Whitney test was used for examining the number of periodontal pocket improving individuals. The p value of statistical significance level was 0.05.

[6] = test system: artificially induced periodontal disease (ligature wire, Streptococcus mutans); test: Evaluation of therapeutic effect for animal periodontal disease; assay type: in vivo, Balb/c mice; conditions: treatment groups; for periodontal pocket improvement percentage (percentage of improving individual): Mann-Whitney test vs tMT
Procedure: as §2
Twelve of 8-week-old female Balb/c mice were selected for each group (Table 3). […] After diagnosis of diseased tissue by chief dentists, they were administered with different concentrations of Lactobacillus salivarius SG-M6 fermentation product, live Lactobacillus salivarius SG-M6, 1 mL of 0.267 mg/mL tetracycline or distilled water every day. The pathological symptoms were recorded. Wire was removed at the beginning of the treatment and periodontal pathogen inoculation was terminated. At day 4, 8, 12, and 16 after wire removal, mice periodontal pocket depth was examined. 3 mice from each group were killed for blood sampling and samples were collected for histological analysis.
as §3, §4

With `CN(C)[C@@H]1C(O)=C(C(N)=O)C(=O)[C@@]2(O)C(O)=C3C(=O)c4c(O)cccc4[C@@](C)(O)[C@H]3C[C@@H]12` [Tetracycline, tetracycline] the inhibition zone [1] was 48.2 ± 2.4^ mm, the inhibition zone [2] was 33.4 ± 2.2^ mm and the inhibition zone [3] was 29.7 ± 2.0^ mm. The inhibition zone [4] was 25.9 ± 1.2^ mm, the “periodontal pocket improvement percentage (percentage of improving individual)” value ([5]; Day 4) was 62% and the periodontal pocket depth ([5]; Day 4, Table 11, comparison with day 4) was 0.84 ± 0.50 mm. For the same compound, the periodontal pocket depth ([5]; Day 4 after wire removal, compared with pMT) was 0.84 ± 0.50 mm, the “periodontal pocket improvement percentage (percentage of improving individual)” value ([5]; Day 8) was 50% and the periodontal pocket depth ([5]; Day 8, Table 11, comparison with day 4) was 0.70 ± 0.34 mm. The periodontal pocket depth ([5]; Day 8, compared with pMT) was 0.70 ± 0.34 mm, the “periodontal pocket improvement percentage (percentage of improving individual)” value ([5]; Day 12) was 71% and the periodontal pocket depth ([5]; Day 12, Table 11, comparison with day 4) was 0.65 ± 0.26 mm. For the same compound, the periodontal pocket depth ([5]; Day 12, compared with pMT) was 0.56 ± 0.26 mm, the “periodontal pocket improvement percentage (percentage of improving individual)” value ([5]; Day 16) was 100% and the periodontal pocket depth ([5]; Day 16, Table 11, comparison with day 4) was 0.49 ± 0.25 mm. For the same compound, the periodontal pocket depth ([5]; Day 16, compared with pMT) was 0.49 ± 0.25 mm, the “periodontal pocket improvement percentage (percentage of improving individual)” value ([6]; Day 4) was 30% and the periodontal pocket depth ([6]; Day 4, Table 13, comparison with day 4) was 1.05 ± 0.64 mm. The periodontal pocket depth ([6]; Day 4, compared with tMT) was 1.05 ± 0.64 mm, the “periodontal pocket improvement percentage (percentage of improving individual)” value ([6]; Day 8) was 20% and the periodontal pocket depth ([6]; Day 8, Table 13, comparison with day 4) was 0.89 ± 0.44 mm. The periodontal pocket depth ([6]; Day 8, compared with tMT) was 0.89 ± 0.44 mm, the “periodontal pocket improvement percentage (percentage of improving individual)” value ([6]; Day 12) was 47% and the periodontal pocket depth ([6]; Day 12, Table 13, comparison with day 4) was 0.63 ± 0.37 mm. The periodontal pocket depth ([6]; Day 12, compared with tMT) was 0.63 ± 0.37 mm, the “periodontal pocket improvement percentage (percentage of improving individual)” value ([6]; Day 16) was 33% and the periodontal pocket depth ([6]; Day 16, Table 13, comparison with day 4) was 0.61 ± 0.34 mm. For the same compound, the periodontal pocket depth ([6]; Day 16, compared with tMT) was 0.48 ± 0.33 mm.
